The values that follow come from article PMC10510246, “Inhibitory effect of O-propargyllawsone in A549 lung adenocarcinoma cells” (BMC Complementary Medicine and Therapies, 2023).

Each structure is given as a SMILES string. Counter-ions that a name gives are not always drawn. Like-named read-outs stand apart in the source and are kept apart here. Some results are limits rather than exact numbers.

Data set [1] deals with A549 cells. The data set can be described thus: Annexin V-FITC/PI assay (flow cytometry). In kind it is cell-based. As to conditions: 24 h. On the procedure: A549 cells were seeded in 12-well plates in DMEM medium supplemented with FBS and 1% antibiotic (10,000 U/ml penicillin; […] streptomycin) with a density equal to 2 × 10^5 cells/well and incubated for 24 h. Then, the cells were treated with the compound 1 at concentrations of 1.1, 2.2 and 4.4 µM, for 24 h. Dimethyl sulfoxide 0.02% was used as negative control and 0.2 μM Doxorubicin were used as positive control. After treatment, cells were detached with Accutase solution, transferred to tubes, and washed with PBS. After washing the cells were stained with Annexin V-FITC/PI according to the manufacturer. Samples were analyzed by flow cytometry (Attune NxT Acoustic Focusing Cytometer, Thermo Fisher Scientific). Cells without labeling were considered viable, cells positive only for Annexin V/FITC were considered cells in apoptosis, cells with double labeling for Annexin V/FITC and propidium iodide were considered cells in late apoptosis and cells positive only for iodide propidium were considered cells in necrosis.
Background: A flow cytometer gives signals particle by particle.

A further data set concerns human erythrocytes. The experiment in a line: Hemolytic assay. In kind it is cell-based. On the procedure: (§1) The hemolytic activity of the compound 1 was tested using human erythrocytes from healthy volunteers. […] Triton X 100 (0.1%) and Dimethyl sulfoxide (0.1%) were used as positive and negative hemolysis controls, respectively. Erythrocytes were kept under agitation at a temperature of 37 °C for 1 h. After this time, the plate was centrifuged at 405 × g for 5 min and 0.15 mL of the transferred supernatant was read in a spectrophotometer (Biotek—H1 Synergy) with an absorbance of 540 nm.

Another data set in a line: Hemolytic assay. In kind it is cell-based, human. As to conditions: human erythrocytes (2% suspension); human erythrocytes, 110 µM, 1 h; read-out: hemolysis percentage. On the procedure: as §1
The test system of data set [2] is A549 cells. The data set can be described thus: Giemsa staining, morphological changes, A549. The note with it: A549, 2.2 and 4.4 μM, 24 h. In kind it is cell-based. As to the method:
(§2) A549, B16-F10 and C6 cells were seeded on coverslips in 24-well plates at a density of 2 × 10^4 cells/well. After 24 h, cells were treated with the compound 1 derivative using 1.1, 2.2 and 4.4 μM for A549 and C6, and 0.75, 1.5 and 3 µM for B16-F10 for 24 h. After treatment, cells were washed twice with phosphate-buffered saline (PBS) and fixed with methyl alcohol for 3 min. Then cells were stained with Giemsa for 1 min. The slides were evaluated under an optical microscope (Olympus) and the images were captured at 400 × magnification.

Data set [3] deals with A549 cells. The data set can be described thus: Wound-healing assay (cell migration). In kind it is cell-based. The note with it: for wound closure: A549, 4.4 µM. As to the method: A549 cells were seeded in a 12-well plate at a density of 4 × 10^5 cells/well and incubated in an incubator with 5% CO2 atmosphere at 37 °C for 24 h. After the incubation period, a straight-line wound was made with the aid of a p200 tip, the supernatant was discarded, and the wells were washed twice with 1 × PBS to remove loose cells. Cells were treated with compound 1 at concentrations of 1.1, 2.2 and 4.4 µM. 0.02% Dimethyl sulfoxide and 0.2 μM Doxorubicin were used as a negative control and positive control, respectively. Images of wound closure were acquired at 0, 24 and 48 h of treatment with an Olympus microscope. The images were analyzed using the ImageJ software version 1.46.

For another data set, the system named is glioma (C6) cells. The experiment in a line: Sulforhodamine B (SRB) cell growth inhibition assay, C6. In kind it is cell-based. The note with it: for IC50: C6, SRB, 72 h, value (95% confidence interval), read-out: IC50 (maximum 50% inhibitory concentration of cell growth). As to the method: (§3) The cell lines of lung adenocarcinoma (A549), melanoma (B16-F10) and glioma (C6) were purchased from the Federal University of Rio de Janeiro. Cells were maintained in cell culture flasks in Dulbeccos's Modified Eagle Medium (DMEM) supplemented with 10% Fetal Bovine Serum (FBS) and 1% antibiotic (10,000 U/mL penicillin; […] streptomycin) and incubated at 37 °C in an atmosphere of 5% CO2. After reaching the necessary confluence for carrying out the experiments, the medium was removed, and the cells detached from the bottle using a 0.25% Trypsin–EDTA solution for a period of 1 to 15 min. After this step, the Trypsin–EDTA solution was inactivated with culture medium and the cells were centrifuged, with rotation of 153 G for 10 min at 4 °C. The pellet formed was resuspended in culture medium and the cells were counted in a Neubauer chamber to carry out the experiments.
(§4) For this experiment, A549, B16-F10 and C6 cells were seeded in 96-well plates at a density of 1 × 10^4 cells/well. After an incubation period of 24 h in a humidified incubator at 37 °C with 5% CO2 atmosphere for adhesion, the cells were treated with lawsone and lawsone derivatives (compounds 1, 2 and 3) for 72 h with concentrations from 25 µM to 0.8 µM. Cells were fixed with 100 μL of 30% trichloroacetic acid for 1 h in a refrigerator at 4 °C. Then, the plate was washed 4 times with water and set to dry. After the drying period, 100 μL of 0.057% Sulforhodamine B (SRB) solution (w/v) dissolved in 1% acetic acid was added for 30 min at room temperature. Then the plate was washed 4 times with 1% acetic acid to remove excess dye. After drying, 200 μL of TRIS 10 mM pH 10.5 was added to dilute the SRB for 30 min. The reading was made in a spectrophotometer (Biotek—H1 Synergy) with a wavelength of 510 nm.
(§5) Based on the inhibitory degree of the derivatives, the IC50 of the compounds were calculated. The IC50 is the concentration capable of inhibiting 50% of cell growth. The compound that presented the lowest IC50 was compound 1, being selected for evaluation in the following experiments. For this, IC50 values were used as a basis to define concentrations of half of the IC50, the IC50 value and twice the IC50.

A further data set concerns B16-F10 cells. The experiment in a line: Giemsa staining, morphological changes, B16-F10. In kind it is cell-based. As to conditions: 24 h. On the procedure: as §2
Data set [4] has as its system lung adenocarcinoma (A549) cells. The experiment in a line: Sulforhodamine B (SRB) cell growth inhibition assay, A549. In kind it is cell-based. The note with it: for IC50: A549, SRB, 72 h, value (95% confidence interval), read-out: IC50 (maximum 50% inhibitory concentration of cell growth). As to the method: as §3, §4, §5
The next data set concerns melanoma (B16-F10) cells. The experiment in a line: Sulforhodamine B (SRB) cell growth inhibition assay, B16-F10. In kind it is cell-based. The note with it: for IC50: B16-F10, SRB, 72 h, value (95% confidence interval), read-out: IC50 (maximum 50% inhibitory concentration of cell growth). As to the method: as §3, §4, §5
Data set [5] has as its system A549 cells. The experiment in a line: Clonogenic assay. In kind it is cell-based. The note with it: Homo sapiens, 72 h treatment, read-out: inhibition of colony formation. On the procedure: A549 cells were seeded in a 6-well plate at a density of 150 cells/well and incubated in an incubator with 5% CO2 atmosphere at 37 °C. After 24 h, cells were treated with the compound 1 at concentrations of 1.1, 2.2 and 4.4 µM for 72 h. Dimethyl sulfoxide 0.02% and Doxorubicin 0.2 μM were used as negative control and positive control respectively. The treatment was removed and replaced with a supplemented DMEM medium. The cells were incubated in an atmosphere of 5% CO2 at 37 °C. After 6 days, cells were fixed with methanol + acetic acid (3:1) for 5 min and stained with 0.5% crystal violet in water for 30 min. The plates were photographed, and the images were analyzed using ImageJ 1.46 software.

In another data set the test system is C6 cells. The data set can be described thus: Giemsa staining, morphological changes, C6. In kind it is cell-based. The note with it: 24 h. As to the method: as §2

As for `C#CCOC1=CC(=O)c2ccccc2C1=O` [Compound 1, O-propargyllawsone], the “changes in the percentage of living, apoptotic or necrotic cells” value in the data set with A549 cells [1] (A549, 1.1 µM and 2.2 µM) is listed as “not able to induce significant changes”. In the data set with A549 cells [1] (A549, 4.4 µM), this compound came in with a cells undergoing apoptosis of 47.8%. In the data set with A549 cells [1] (A549, 4.4 µM), this compound had a cells undergoing necrosis of 39.7%. For the same compound, the “percentage of living cells” value in the data set on A549 cells [1] (A549, 4.4 µM) turned out to be 12.4%. Further, in the data set on human erythrocytes (highest concentration tested of 110 µM), the toxicity to erythrocytes result was “not toxic to erythrocytes”. In the data set on human erythrocytes (human erythrocytes, 13.75, 27.5 and 55 µM, 1 h), the hemolytic effect entry is listed as “no hemolytic effect”. For the same compound, in the data set “Hemolytic assay”, the hemolysis at 1 h, 110 µM was below 0.5%. For the same compound, the “morphological changes (Giemsa)” value with A549 cells [2] was “reduction in cytoplasm and apoptotic cells”; in the data set with B16-F10 cells (B16-F10, 0.75 µM), “reduced cytoplasmic volume and the appearance of apoptotic cells”; in the data set with B16-F10 cells (B16-F10, 1.5 and 3 µM), “reduction in cytoplasm and apoptotic cells”; in the data set with C6 cells (C6, 1.1 µM) it was “reduced cytoplasmic volume and the appearance of apoptotic cells”; in the data set with C6 cells (C6, 2.2 and 4.4 μM), “reduction in cytoplasm and apoptotic cells”. Besides, the “effect on cell migration” value in the data set on A549 cells [3] (A549, 1.1 µM, 24 or 48 h) was “no significant reduction of migration”. Moreover, in the data set with A549 cells [3] (A549, 2.2 µM, 48 h), the “reduction of wound closure” value is on record as 33%. Further, the wound closure was 18% with A549 cells [3] (24 h) and 56% with A549 cells [3] (48 h). Further, the growth inhibition category entry with glioma (C6) cells (C6, 72 h, concentrations from 25 to 6.3 µM) is recorded as “high (high inhibition when above 75%)”; in data set [4] (A549, 72 h, concentrations from 25 to 6.3 µM) it was “high (high inhibition when above 75%)”; with melanoma (B16-F10) cells (B16-F10, 72 h, concentrations from 25 to 6.3 µM), “high (high inhibition when above 75%)”. In addition, the IC50 in the data set with glioma (C6) cells is 2.2 µM; in the data set with glioma (C6) cells (Rattus norvegicus, C6, 72 h), below 2.2 µM; in [4], 2.2 µM; in data set [4] (Homo sapiens, A549, 72 h), below 2.5 µM; in the data set with melanoma (B16-F10) cells, 1.5 µM; in the data set on melanoma (B16-F10) cells (Mus musculus, B16-F10, 72 h), below 2.2 µM. In data set [4] (compared with lawsone IC50, cell line not specified), the “inhibitory potential relative to lawsone” value is “at least 10 times”. Moreover, in the data set on A549 cells [5] (A549, 1.1 µM, compared to the negative control), the inhibition (usually how much of the control response was suppressed) at 1.1 µM was determined as 31.1%. Further, the inhibition at 2.2 µM in the data set with A549 cells [5] (A549, 2.2 µM, compared to the negative control) is 82.1%. Moreover, the inhibition at 4.4 µM in the data set on A549 cells [5] (A549, 4.4 µM, compared to the negative control) was found to be 98.1%.
In the case of `O=C1C=C(OCc2cn(-c3ccccc3)nn2)C(=O)c2ccccc21` [Compound 2], the growth inhibition category entry was “low (low when below 50%)” with glioma (C6) cells (C6, 72 h, concentrations 12.5 to 0.8 µM); “low (low when below 50%)” in data set [4] (A549, 72 h, concentrations 12.5 to 0.8 µM); “low (low when below 50%)” in the data set with melanoma (B16-F10) cells (B16-F10, 72 h, concentrations 12.5 to 0.8 µM). Besides, the IC50 with glioma (C6) cells (listed as compound 2) is above 14 µM; in the data set on glioma (C6) cells it was 43.4 µM; in [4], 14.9 µM; in data set [4] (Homo sapiens, A549, 72 h), above 14 µM; in the data set with melanoma (B16-F10) cells, 14.2 µM; in the data set on melanoma (B16-F10) cells (Mus musculus, B16-F10, 72 h) it was above 14 µM. The inhibition at 25 µM was 50 to 75% in data set [4] (Homo sapiens, A549, 72 h, 25 µM, read-out: growth inhibition category) and 50 to 75% in the data set on melanoma (B16-F10) cells (Mus musculus, B16-F10, 72 h, 25 µM, read-out: growth inhibition category).
Consider `O=C1C=C(OCc2cn(-c3ccc(Cl)cc3)nn2)C(=O)c2ccccc21` [Compound 3], for which the growth inhibition category result is “low (low when below 50%)” with glioma (C6) cells (C6, 72 h, all concentrations tested (25 µM to 0.8 µM)); “low (low when below 50%)” in data set [4] (A549, 72 h, all concentrations tested (25 µM to 0.8 µM)); “low (low when below 50%)” in the data set on melanoma (B16-F10) cells (B16-F10, 72 h, all concentrations tested (25 µM to 0.8 µM)).
With `COc1cccc2c1C(=O)c1c(O)c3c(c(O)c1C2=O)C[C@@](O)(C(=O)CO)C[C@@H]3O[C@H]1C[C@H](N)[C@H](O)[C@H](C)O1` [Doxorubicin, Doxorubicin Hydrochloride, reference compound], the “changes in the percentage of living, apoptotic or necrotic cells” value with A549 cells [1] (A549, 0.2 µM) is given as “not possible to observe changes”. In the data set with A549 cells [3] (A549, 0.2 μM (positive control), 48 h), the “wound closure (wound restored)” value amounted to 78%. The IC50 in data set [4] is below 0.6 µM; in the data set on melanoma (B16-F10) cells (listed as Doxorrubicin), 0.6 µM; in the data set on melanoma (B16-F10) cells (Mus musculus, B16-F10, 72 h), below 0.6 µM. Further, the inhibition at 0.2 µM with A549 cells [5] (A549, 0.2 μM (positive control)) is 96.1%.
For `O=C1C=C(O)C(=O)c2ccccc21` [Lawsone, 2-hydroxy-1,4-naphtoquinone], the IC50 in the data set with glioma (C6) cells (Rattus norvegicus, C6, 72 h) was determined as 22.6 µM; in data set [4] (Homo sapiens, A549, 72 h) it was 53 µM.
